According to patent US11459327B1, “Cycloalkyl and hetero-cycloalkyl inhibitors, preparation methods therefor, and use thereof” (Suzhou Zelgen Biopharmaceuticals Co., Ltd., priority 2019, dated 2022):

Columns and labels:
[1] = test system: NCI-H358(KRAS^G12C mutation) cells; experiment: Cell assay of antiproliferative activity (Celltiter-Glo, 5 days) against NCI-H358 cells; assay type: cell-based; details: 5 days incubation
Procedure, shortened: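 Cells plated overnight, then given a 10-point compound series (stock dilutions 50 μM to 0.003 μM, 100 nL added per well) and grown 5 days. Luminescence read after 10 min shaking at room temperature. IC50 from curve fitting.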

[2] = test system: A549(KRAS^G12S mutation) cells; experiment: Cell assay of antiproliferative activity (Celltiter-Glo, 5 days) against A549 cells; assay type: cell-based; details: 5 days incubation
Procedure: Cell assay of antiproliferative activity of compounds against NCI-H358(KRAS^G12C mutation) and A549(KRAS^G12S mutation) cells.
40 μl phosphate buffer was added to the outer wells of the 384 microplate, and 40 μl cell suspension to be tested was added to the other wells. Then the microplate was incubated in a carbon dioxide incubator overnight.
The compounds to be tested were gradiently diluted, each compound was performed 10 concentration gradients (diluted from 50 μM to 0.003 μM) and added 100 nL to the corresponding wells in the microplate. After addition, 40 μl of phosphate buffer was added to each well in rows A and P and columns 1 and 24, and then the microplate was incubated in a carbon dioxide incubator for 5 days.
20 μL of Promega Celltiter-Glo reagent was added to each well of the microplate, and then the luminescence signal was stabilized by oscillating at room temperature for 10 min. Then PekinElmer Envision multi-label analyzer was used to read.
Finally, GraphPad Prism software was used to calculate the IC50 value of the compound and the fitting curve was drawn.
Anti-proliferative activity of the compounds of the present invention against NCI-H358(KRAS^G12C mutation) and A549(KRAS^G12S mutation) cells were shown in Table 1.

Row | IC50 ([1]; Homo sapiens, NCI-H358, 120 h) [µM] | IC50 ([2]; Homo sapiens, 120 h) [µM] | SMILES | IC50 [1] [µM] | IC50 [2] [µM]
1 | 0.18 | 10.6 | C=CC(=O)N1CCN(c2nc(OC[C@@H](C)N(C)C3CC3)nc3c2CCN(c2cccc4cccc(C)c24)C3)CC1CC#N (stereo partly drawn) [Example 72, 2-(1-acroloyl-4-(2-((R)-2-(cyclopropyl(methyl)amino)propoxy)-7-(8-methylnaphthalen-1-yl)-5,6,7,8-tetrahydropyrido[3,4-d]pyrimidin-4-yl)piperazin-2-yl) acetonitrile] |  | 
2 | 0.091 | 2.2 | C=C(F)C(=O)N1CCN(c2nc(OCCN(C)C3CCC3)nc3c2CCN(c2cccc4ccc(F)c(C)c24)C3)CC1CC#N (stereo not drawn) [Example 22, 2-(4-(2-(2-(cyclobutyl(methyl)amino)ethyoxyl)-7-(7-fluoro-8-methylnaphthalen-1-yl)-5,6,7,8-tetrahydropyrido[3,4-d]pyrimidin-4-yl)-1-(2-fluoroacroloyl)piperazin-2-yl) acetonitrile] |  | 
3 | 0.16 | 17.7 | C=CC(=O)N1CCN(c2nc(OC[C@H](C(C)C)N(C)C3CCC3)nc3c2CCN(c2cccc4cccc(Cl)c24)C3)CC1CC#N (stereo partly drawn) [Example 9, 2-(1-acroloyl-4-(7-(8-chloronaphthalen-1-yl)-2-((S)-2-(cyclobutyl(methyl)amino)-3-methylbutyloxy)-5,6,7,8-tetrahydropyrido[3,4-d]pyrimidin-4-yl)piperazin-2-yl) acetonitrile] |  | 
4 | 0.11 | 3.2 | C=C(F)C(=O)N1CCN(c2nc(OCCN(C)C3CCC3)nc3c2CCN(c2cccc4cccc(Cl)c24)C3)CC1CC#N (stereo not drawn) [Example 11, 2-(4-(7-(8-chloronaphthalen-1-yl)-2-(2-(cyclobutyl(methyl)amino)ethoxy)-5,6,7,8-tetrahydropyrido[3,4-d]pyrimidin-4-yl)-1-(2-fluoroacroloyl)piperazin-2-yl) acetonitrile] |  | 
5 | 0.31 | 7.8 | C=CC(=O)N1CCN(c2nc(OCCOC3CC3)nc3c2CCN(c2cccc4cccc(C)c24)C3)CC1CC#N (stereo not drawn) [Example 93, 2-(1-acroloyl-4-(2-(2-cyclopropoxyethyoxy)-7-(8-methylnaphthalen-1-yl)-5,6,7,8-tetrahydropyrido[3,4-d]pyrimidin-4-yl)piperazin-2-yl) acetonitrile] |  | 
6 | 0.04 | 3.1 | C=CC(=O)N1CCN(c2nc(OCCN(C)[C@H](C)C3CC3)nc3c2CCN(c2cccc4cccc(C)c24)C3)CC1CC#N (stereo partly drawn) [Example 79, 2-(1-acroloyl-4-(2-(2-(((R)-1-cyclopropylmethyl)(methyl)amino)ethoxy)-7-(8-methylnaphthalen-1-yl)-5,6,7,8-tetrahydropyrido[3,4-d]pyrimidin-4-yl)piperazin-2-yl) acetonitrile] |  | 
7 | 0.08 | 2.6 | C=CC(=O)N1CCN(c2nc(OC[C@H](C)N(C)CC3CC3)nc3c2CCN(c2cccc4cccc(C)c24)C3)CC1CC#N (stereo partly drawn) [Example 74] |  | 
8 | 0.16 | 6.6 | C=CC(=O)N1CCN(c2nc(OCCN(C)CC3CCC3)nc3c2CCN(c2cccc4cccc(C)c24)C3)CC1CC#N (stereo not drawn) [Example 82, 2-(1-acroloyl-4-(2-(2-((cyclobutylmethyl)(methyl)amino)ethoxy)-7-(8-methylnaphthalen-1-yl)-5,6,7,8-tetrahydropyrido[3,4-d]pyrimidin-4-yl)piperazin-2-yl) acetonitrile] |  | 
9 | 0.87 | 7.7 | C=CC(=O)N1CCN(c2nc(OCC3(COC)CC3)nc3c2CCN(c2cccc4cccc(Cl)c24)C3)CC1CC#N (stereo not drawn) [Example 20, 2-(1-acroloyl-4-(7-(8-chloronaphthalen-1-yl)-2-((1-(methoxymethyl)cyclopropyl)methoxyl)-5,6,7,8-tetrahydropyrido[3,4-d]pyrimidin-4-yl)piperazin-2-yl) acetonitrile] |  | 
10 | 0.04 | 7.5 | C=CC(=O)N1CCN(c2nc(OCCN(C)C3CCC3)nc3c2CCN(c2cccc4cccc(C)c24)C3)CC1CC#N (stereo not drawn) [Example 81, 2-(1-acroloyl-4-(2-(2-((cyclobutyl)(methyl)amino)ethoxy)-7-(8-methylnaphthalen-1-yl)-5,6,7,8-tetrahydropyrido[3,4-d]pyrimidin-4-yl)piperazin-2-yl) acetonitrile] |  | 
11 | 0.14 | 2.3 | C=C(F)C(=O)N1CCN(c2nc(OC[C@H](C)N(C)C3CCC3)nc3c2CCN(c2cccc4cccc(Cl)c24)C3)CC1CC#N (stereo partly drawn) [Example 12] |  | 
12 |  | 9.5 | C=CC(=O)N1CCN(c2nc(OCCN(C)CC3(F)CC3)nc3c2CCN(c2cccc4cccc(C)c24)C3)CC1CC#N (stereo not drawn) [Example 4] | 0.21 | 
13 | 0.027 | 7.8 | C=CC(=O)N1CCN(c2nc(OCCN(C)C3CCC3)nc3c2CCN(c2cccc4ccc(F)c(C)c24)C3)CC1CC#N (stereo not drawn) [Example 21, 2-(1-acroloyl-4-(2-(2-(cyclobutyl(methyl)amino)ethyoxyl)-7-(7-fluoro-8-methylnaphthalen-1-yl)-5,6,7,8-tetrahydropyrido[3,4-d]pyrimidin-4-yl)piperazin-2-yl) acetonitrile] |  | 
14 | 0.15 | 11.5 | C=CC(=O)N1CCN(c2nc(OC[C@H](C)N(C)C3CC3)nc3c2CCN(c2cccc4cccc(C)c24)C3)CC1CC#N (stereo partly drawn) [Example 71, 2-(1-acroloyl-4-(2-((S)-2-(cyclopropyl(methyl)amino)propoxy)-7-(8-methylnaphthalen-1-yl)-5,6,7,8-tetrahydropyrido[3,4-d]pyrimidin-4-yl)piperazin-2-yl) acetonitrile] |  | 
15 | 0.11 | 9.9 | C=CC(=O)N1CCN(c2nc(OCCN(C)CC3CC3(F)F)nc3c2CCN(c2cccc4cccc(Cl)c24)C3)CC1CC#N (stereo not drawn) [Example 6] |  | 
16 |  |  | C=CC(=O)N1CCN(c2nc(OCC3(CN(C)C)COC3)nc3c2CCN(c2cccc4cccc(Cl)c24)C3)CC1CC#N (stereo not drawn) [Example 19, 2-(1-acroloyl-4-(7-(8-chloronaphthalen-1-yl)-2-((3-((dimethylamino)methyl)oxetan-3-yl)methoxyl)-5,6,7,8-tetrahydropyrido[3,4-d]pyrimidin-4-yl)piperazin-2-yl) acetonitrile] | 0.0046 | 8.9
17 | 0.039 | 7.1 | C=CC(=O)N1CCN(c2nc(OCC3(CN(C)C)CCC3)nc3c2CCN(c2cccc4cccc(Cl)c24)C3)CC1CC#N (stereo not drawn) [Example 3, 2-(1-acroloyl-4-(7-(8-chloronaphthalen-1-yl)-2-((1-((dimethylamino)methyl)cyclobutyl)methoxyl)-5,6,7,8-tetrahydropyrido[3,4-d]pyrimidin-4-yl)piperazin-2-yl) acetonitrile] |  | 
18 | 0.22 | 7.1 | C=CC(=O)N1CCN(c2nc(OC[C@@H](COC)N(C)C3CCC3)nc3c2CCN(c2cccc4cccc(C)c24)C3)CC1CC#N (stereo partly drawn) [Example 1, 2-(1-acroloyl-4-(2-((R)-2-(cyclobutyl(methyl)amino)-3-methoxypropoxy)-7-(8-methylnaphthalen-1-yl)-5,6,7,8-tetrahydropyrido[3,4-d]pyrimidin-4-yl)piperazin-2-yl) acetonitrile] |  | 
